The source of these data is article PMC4603705, “A bioinspired peptide scaffold with high antibiotic activity and low in vivo toxicity” (Scientific Reports, 2015).

In brackets after ≈: the same amount, converted by molar mass. Read-outs that look alike come from different tables or passages of the source. Bridge positions count the residues as written; N and C are the ends. Square brackets hold non-standard residues; d marks the D form. Peptide text beside a SMILES is read from it. * marks the point of attachment. Decanoyl = CCCCCCCCCC(=O)*; Nonanoyl = CCCCCCCCC(=O)*; Dab = NCC[C@H](N)C(=O)O

One assay concerns S. aureus ATTC 6538. The assay is described as follows: microbe, parasite or virus in culture. The assay is classed as cell-based, Staphylococcus aureus. Particulars: for MIC S. aureus: ATTC 6538; for MIC S. a.: Supplementary Table S1, S. aureus. The protocol: (§1) MICs were measured after 18–20 h of incubation in sterile 96-well plates (Corning Costar 3598 microtiter plates) in Mueller Hinton Broth (MHB) culture medium, (Difco, USA), according to well known in vitro protocols. Bacterial strains in Table 1 were: P. aeruginosa ATTC 9027, E. coli ATTC 8739, S. aureus ATTC 6538, and E. faecalis ATTC 29212. MICs shown in table 4 were performed by Mary Conrad at Cubist Pharmaceuticals (Lexington, MA) in non-binding surface plates.

The test system of a further assay is P. aeruginosa ATTC 9027. The assay is classed as cell-based, Pseudomonas aeruginosa. Particulars: for MIC P. aeruginosa: ATTC 9027; for MIC P. a.: Supplementary Table S1, P. aeruginosa. The protocol:
as §1

The next assay concerns E. coli ATTC 8739. The assay is classed as cell-based, Escherichia coli. Particulars: for MIC E. coli: ATTC 8739; for MIC E. c.: Supplementary Table S1, E. coli. The protocol:
as §1

In the case of `CCCCCCCCCC(=O)N[C@@H](CCN)C(=O)N[C@H](C(=O)N[C@@H](CCN)C(=O)N[C@H]1CSSC[C@H](C(N)=O)NC(=O)[C@H](CCN)NC(=O)[C@H](CCN)NC(=O)[C@H](CC(C)C)NC(=O)[C@@H](Cc2ccccc2)NC(=O)[C@H](CCN)NC1=O)[C@@H](C)O` [Analog 37, decanoyl -Dab-Thr-Dab-Cys-Dab-Phe-Leu-Dab-Dab-Cys] (Decanoyl-[Dab]T[Dab]C[Dab][dF]L[Dab][Dab][dC]-NH2; disulfide 4-10), the “MIC S. aureus” value in the assay with S. aureus ATTC 6538 is 8 µg/mL (≈ 6.46 µM). Besides, the “MIC P. aeruginosa” value in the assay with P. aeruginosa ATTC 9027 was 4 µg/mL (≈ 3.23 µM). Besides, the “MIC E. coli” value in the assay with E. coli ATTC 8739 is 2 µg/mL (≈ 1.62 µM).
With “C9-Arg-Thr-Dab-Cys-Dab-Phe-Thr-Arg-Dab-Cys [Analog 27]”, the MIC S. a. with S. aureus ATTC 6538 amounted to 64 µg/mL. The MIC P. a. in the assay with P. aeruginosa ATTC 9027 came to 8 µg/mL. The compound further displayed an MIC E. c. with E. coli ATTC 8739 of 16 µg/mL.
“C9-Arg-Thr-Dab-Cys-Arg-Phe-Leu-Arg-Dab-Cys [Analog 9]”: the MIC S. a. against S. aureus ATTC 6538 was found to be 16 µg/mL. The compound further had an MIC P. a. in the assay with P. aeruginosa ATTC 9027 of 128 µg/mL. This compound also showed an MIC E. c. with E. coli ATTC 8739 of 16 µg/mL.
Turning to “C9-Arg-Thr-Lys-Cys-Dab-Phe-Leu-Arg-Lys-Cys [Analog 32]”, the MIC S. a. with S. aureus ATTC 6538 came to 32 µg/mL. This compound gave an MIC P. a. with P. aeruginosa ATTC 9027 of 16 µg/mL. This compound also gave an MIC E. c. in the assay with E. coli ATTC 8739 of 8 µg/mL.
In the assay with S. aureus ATTC 6538, “C9-Arg-Thr-Dab-Cys-Dab-Phe-Leu-Arg-Dab-Cys [Analog 23]” had an MIC S. a. of 32 µg/mL. Also, the MIC P. a. in the assay on P. aeruginosa ATTC 9027 (listed as 23) is 128 µg/mL. Besides, the MIC E. c. in the assay on E. coli ATTC 8739 was 64 µg/mL.
“C9-Orn-Thr-Dab-Cys-Dab-Phe-Leu-Orn-Dab-Cys [Analog 35]” showed an MIC S. a. with S. aureus ATTC 6538 of 64 µg/mL. The MIC P. a. with P. aeruginosa ATTC 9027 stood at 16 µg/mL. Further, the MIC E. c. in the assay with E. coli ATTC 8739 came out at 16 µg/mL.
Consider `CCCCCCCCCC(=O)N[C@@H](CCCNC(=N)N)C(=O)N[C@H](C(=O)N[C@@H](CCN)C(=O)N[C@H]1CSSC[C@@H](C(N)=O)NC(=O)[C@H](CCN)NC(=O)[C@H](CCCNC(=N)N)NC(=O)[C@H](CC(C)C)NC(=O)[C@@H](Cc2ccccc2)NC(=O)[C@H](CCN)NC1=O)[C@@H](C)O` [Analog 36, decanoyl-Arg-Thr-Dab-Cys-Dab-Phe-Leu-Arg-Dab-Cys] (Decanoyl-RT[Dab]C[Dab][dF]LR[Dab]C-NH2; disulfide 4-10), for which the “MIC S. aureus” value in the assay with S. aureus ATTC 6538 stood at 16 µg/mL (≈ 11.9 µM). Moreover, the “MIC P. aeruginosa” value in the assay with P. aeruginosa ATTC 9027 came out at 8 µg/mL (≈ 5.93 µM). Besides, in the assay with E. coli ATTC 8739, the “MIC E. coli” value is 8 µg/mL (≈ 5.93 µM).
Turning to “C9-Arg-Thr-Dab-Cys-Dab-Leu-Leu-Arg-Dab-Cys [Analog 29]”, the MIC S. a. against S. aureus ATTC 6538 was 32 µg/mL. The same compound returned an MIC P. a. with P. aeruginosa ATTC 9027 of 16 µg/mL. The MIC E. c. in the assay on E. coli ATTC 8739 came to 32 µg/mL.
“C9-Dab[(C=NH)NH2]-Thr-Dab-Cys-Dab-Phe-Leu-Dab[(C=NH)NH2]-Dab-Cys [Analog 15]” returned an MIC S. a. against S. aureus ATTC 6538 above 32 µg/mL. In addition, the MIC P. a. in the assay with P. aeruginosa ATTC 9027 came out at 8 µg/mL. For the same compound, in the assay on E. coli ATTC 8739, the MIC E. c. was 4 µg/mL.
“C9-Arg-Thr-His-Cys-Dab-Phe-Leu-Arg-His-Cys [Analog 31]” registered an MIC S. a. in the assay on S. aureus ATTC 6538 of 128 µg/mL. The same compound had an MIC P. a. against P. aeruginosa ATTC 9027 of 32 µg/mL. This compound also gave an MIC E. c. in the assay on E. coli ATTC 8739 of 32 µg/mL.
In the assay on S. aureus ATTC 6538, “C9-Arg-Thr-Dab-Cys-Dab-Leu-Thr-Arg-Dab-Cys [Analog 30]” registered an MIC S. a. above 128 µg/mL. Moreover, in the assay on P. aeruginosa ATTC 9027, the MIC P. a. is 32 µg/mL. The same compound showed an MIC E. c. in the assay with E. coli ATTC 8739 of 32 µg/mL.
In turn, “C9-Dab-Thr-Dab-Cys-Dab-Phe-Met-Dab-Dab-Cys [Analog 19]” displayed an MIC S. a. in the assay on S. aureus ATTC 6538 of 32 µg/mL. In the assay on P. aeruginosa ATTC 9027, this compound had an MIC P. a. of 16 µg/mL. In the assay with E. coli ATTC 8739, this compound returned an MIC E. c. of 4 µg/mL.
For the compound `CCCCCCCCC(=O)N[C@@H](CCCNC(=N)N)C(=O)N[C@H](C(=O)N[C@@H](CCN)C(=O)N[C@H]1CSSC[C@@H](C(N)=O)NC(=O)[C@H](CCN)NC(=O)[C@H](CCN)NC(=O)[C@H](CC(C)C)NC(=O)[C@@H](Cc2ccccc2)NC(=O)[C@H](CCN)NC1=O)[C@@H](C)O` [Analog 2, nonanoyl-Arg-Thr-Dab-Cys-Dab-Phe-Leu-Dab-Dab-Cys] (Nonanoyl-RT[Dab]C[Dab][dF]L[Dab][Dab]C-NH2; disulfide 4-10), the “MIC S. aureus” value against S. aureus ATTC 6538 is above 32 µg/mL. The “MIC P. aeruginosa” value against P. aeruginosa ATTC 9027 is 8 µg/mL (≈ 6.25 µM). Besides, the “MIC E. coli” value with E. coli ATTC 8739 stood at 8 µg/mL (≈ 6.25 µM).
For the compound `CCCCCCCCC(=O)N[C@@H](CCN)C(=O)N[C@H](C(=O)N[C@@H](CCCNC(=N)N)C(=O)N[C@H]1CSSC[C@@H](C(N)=O)NC(=O)[C@H](CCN)NC(=O)[C@H](CCCNC(=N)N)NC(=O)[C@H](CC(C)C)NC(=O)[C@@H](Cc2ccccc2)NC(=O)[C@H](CCN)NC1=O)[C@@H](C)O` [Analog 6, nonanoyl-Dab-Thr-Arg-Cys-Dab-Phe-Leu-Arg-Dab-Cys] (Nonanoyl-[Dab]TRC[Dab][dF]LR[Dab]C-NH2; disulfide 4-10), in the assay on P. aeruginosa ATTC 9027, the “MIC P. aeruginosa” value stood at 8 µg/mL (≈ 5.99 µM). In the assay on E. coli ATTC 8739, the “MIC E. coli” value is 8 µg/mL (≈ 5.99 µM).
On to “C9-Arg-Thr-Dab-Cys-Dab-Phe-Gly-Arg-Dab-Cys [Analog 26]”, for which the MIC S. a. in the assay with S. aureus ATTC 6538 is 128 µg/mL. In the assay on P. aeruginosa ATTC 9027, this compound yielded an MIC P. a. above 128 µg/mL. In addition, in the assay on E. coli ATTC 8739, the MIC E. c. is 64 µg/mL.
The like results for “C9-Arg-Thr-Dab-Cys-Dab-Gly-Leu-Arg-Dab-Cys [Analog 25]” were, in that order, above 128 µg/mL, above 128 µg/mL and above 128 µg/mL.
In turn, “C9-Arg-Thr-Dab-Ser-Dab-Phe-Leu-Arg-Dab-Ser [Analog 18]” displayed an MIC S. a. with S. aureus ATTC 6538 of 64 µg/mL. The compound further returned an MIC P. a. with P. aeruginosa ATTC 9027 of 64 µg/mL. The MIC E. c. in the assay with E. coli ATTC 8739 was 32 µg/mL.
Turning to “C9-Arg-Thr-Arg-Cys-Arg-Phe-Leu-Arg-Dab-Cys (RTRCRFLR; not fully specified; C9 acyl; Dab-Cys C-terminal; printed: Arg-Thr-Arg-Cys-Arg-Phe-Leu-Arg-) [Analog 11]”, in the assay on S. aureus ATTC 6538, the MIC S. a. was 16 µg/mL. In the assay with P. aeruginosa ATTC 9027, the MIC P. a. was 128 µg/mL. Also, in the assay on E. coli ATTC 8739, the MIC E. c. was 16 µg/mL.
In turn, “C9-Lys-Thr-Dab-Cys-Dab-Phe-Leu-Lys-Dab-Cys [Analog 33]” had an MIC S. a. against S. aureus ATTC 6538 of 128 µg/mL. This compound showed an MIC P. a. in the assay with P. aeruginosa ATTC 9027 of 32 µg/mL. Further, the MIC E. c. against E. coli ATTC 8739 is 16 µg/mL.
The compound “C9-Arg(NO2)-Thr-Dab-Cys-Dab-Phe-Leu-Arg(NO2)-Dab-Cys [Analog 16]” showed an MIC S. a. against S. aureus ATTC 6538 above 32 µg/mL.
Regarding “C9-Arg-Thr-Dab-Cys-Dab-Phe-Met-Arg-Dab-Cys [Analog 21]”, in the assay on S. aureus ATTC 6538, the MIC S. a. was above 32 µg/mL. Also, in the assay on P. aeruginosa ATTC 9027, the MIC P. a. stood at 8 µg/mL.
“C9-Dap[(C=NH)NH2]-Thr-Dab-Cys-Dab-Phe-Leu-Dap[(C=NH)NH2]-Dab-Cys [Analog 14]”: the MIC S. a. against S. aureus ATTC 6538 amounted to 16 µg/mL. The compound further yielded an MIC P. a. in the assay with P. aeruginosa ATTC 9027 of 16 µg/mL. The compound also registered an MIC E. c. against E. coli ATTC 8739 of 2 µg/mL.
On to “C9-Dab-Thr-Dab-Cys-Dab-Phe-Met(O)-Dab-Dab-Cys [Analog 20]”, for which the MIC S. a. against S. aureus ATTC 6538 was above 32 µg/mL. The compound also gave an MIC E. c. against E. coli ATTC 8739 above 32 µg/mL.
With “C9-Arg-Thr-Arg-Cys-Dab-Phe-Met-Arg-Dab-Cys [Analog 22]”, the MIC S. a. in the assay on S. aureus ATTC 6538 turned out to be 32 µg/mL. Moreover, the MIC P. a. in the assay with P. aeruginosa ATTC 9027 is 16 µg/mL. The compound also yielded an MIC E. c. in the assay on E. coli ATTC 8739 of 16 µg/mL.
In the case of “C9-Arg-Thr-Dab-Cys-Dab-Phe-Leu-Arg-Dab-Cys [Analog 17]”, in the assay on P. aeruginosa ATTC 9027 (listed as 17), the MIC P. a. came out at 16 µg/mL.
Turning to `CCCCCCCCC(=O)N[C@@H](CCN)C(=O)N[C@H](C(=O)N[C@@H](CCN)C(=O)N[C@H]1CSSC[C@@H](C(N)=O)NC(=O)[C@H](CCN)NC(=O)[C@H](CCN)NC(=O)[C@H](CC(C)C)NC(=O)[C@@H](Cc2ccccc2)NC(=O)[C@H](CCN)NC1=O)[C@@H](C)O` [Analog 1, nonanoyl-Dab-Thr-Dab-Cys-Dab-Phe-Leu-Dab-Dab-Cys] (Nonanoyl-[Dab]T[Dab]C[Dab][dF]L[Dab][Dab]C-NH2; disulfide 4-10), the “MIC P. aeruginosa” value in the assay with P. aeruginosa ATTC 9027 was 8 µg/mL (≈ 6.54 µM). In addition, the “MIC E. coli” value in the assay with E. coli ATTC 8739 stood at 4 µg/mL (≈ 3.27 µM).
